Measurements: ChEMBL document CHEMBL1121784, “Quantitative structure-activity relationships by distance geometry: thyroxine binding site” (J Med Chem, 1981)

Biological target: Transthyretin (Homo sapiens) (UniProt P02766)
Test: Binding affinity against prealbumin

SMILES | Delta G [kcal/M]
CCc1c(Br)c(C)c(Oc2c(I)c(C)c(CC(N)C(=O)O)c(C)c2I)c(C)c1Br (stereo unspecified) | -9.2
CCc1cc(C)c(Oc2c(I)c(C)c(CC(N)C(=O)O)c(C)c2I)c(C)c1C(C)C (stereo unspecified) | -7.8
CCc1cc(C)c(Oc2c(I)c(C)c(CC(N)C(=O)O)c(C)c2I)c(C)c1Br (stereo unspecified) | -8.2
CCc1c(I)c(C)c(Oc2c(I)c(C)c(CCN)c(C)c2I)c(C)c1I | -9.7
CCCc1c(CC)cc(C)c(Oc2c(I)c(C)c(CC(N)C(=O)O)c(C)c2I)c1C (stereo unspecified) | -7.6
CCc1c(I)c(C)c(Oc2c(I)c(C)c(CC(N)C(=O)O)c(C)c2I)c(C)c1I (stereo in doubt; 2) | -10.7
CCc1c(I)c(C)c(Oc2cc(C)c(CC(N)C(=O)O)c(C)c2I)c(C)c1I (stereo unspecified) | -10
CCc1cc(C)c(Oc2c(I)c(C)c(CC(N)C(=O)O)c(C)c2I)c(C)c1Cl (stereo unspecified) | -7.7
CCc1c(I)c(C)c(Oc2c(I)c(C)c(CCC(=O)O)c(C)c2I)c(C)c1I | -11.4
CCc1c(I)c(C)c(Oc2c(I)c(C)c(C(=O)O)c(C)c2I)c(C)c1I | -11.1
CCc1c(I)c(C)c(Oc2c(I)c(C)c(CC(N)C(=O)O)c(C)c2I)c(C)c1I (stereo in doubt; 26) | -8.7
CCc1cc(C)c(Oc2c(C)c(C)c(CC(N)C(=O)O)c(C)c2C)c(C)c1I (stereo unspecified) | -7.8
CCc1c(I)c(C)c(Oc2c(C)c(C)c(CC(N)C(=O)O)c(C)c2C)c(C)c1I (stereo unspecified) | -7.7
CCc1cc(C)c(Oc2cc(C)c(CC(N)C(=O)O)c(C)c2I)c(C)c1 (stereo unspecified) | -5.2
CCc1cc(C)c(Oc2c(I)c(C)c(CC(N)C(=O)O)c(C)c2I)c(C)c1CC(C)C (stereo unspecified) | -8.4
CCc1c(C)c(C)c(Oc2c(I)c(C)c(CC(N)C(=O)O)c(C)c2I)c(C)c1C (stereo unspecified) | -6.6
CCc1cc(C)c(Oc2c(I)c(C)c(CC(N)C(=O)O)c(C)c2I)c(C)c1C(C)(C)C (stereo unspecified) | -8
CCc1cc(C)c(Oc2c(I)c(C)c(CC(=O)O)c(C)c2I)c(C)c1I | -9.7
CCc1cc(C)c(Oc2cc(C)c(CC(N)C(=O)O)c(C)c2I)c(C)c1I (stereo unspecified) | -7.6
CCc1cc(C)c(Oc2c(I)c(C)c(CC(N)C(=O)O)c(C)c2I)c(C)c1I (stereo in doubt; 21) | -7
CCc1cc(C)c(Oc2c(I)c(C)c(CC(N)C(=O)O)c(C)c2I)c(C)c1C (stereo unspecified) | -7.4
CCc1c(I)c(C)c(Oc2c(I)c(C)c(CCCC(=O)O)c(C)c2I)c(C)c1I | -11.3
CCc1cc(C)c(Oc2c(I)c(C)c(CC(N)C(=O)O)c(C)c2I)c(C)c1C(C)CC (stereo unspecified) | -9
CCc1cc(C)c(Oc2c(I)c(C)c(CC(N)C(=O)O)c(C)c2I)c(C)c1 (stereo unspecified) | -7.1
CCc1c(I)c(C)c(Oc2c(I)c(C)c(CC(=O)O)c(C)c2I)c(C)c1I | -11.9
CCc1cc(C)c(Oc2c(I)c(C)c(CC(N)C(=O)O)c(C)c2I)c(C)c1I (stereo in doubt; 1) | -9.2
